Results reported in ChEMBL document CHEMBL4219032, “Triple Reuptake Inhibitors as Potential Therapeutics for Depression and Other Disorders: Design Paradigm and Developmental Challenges” (J Med Chem, 2018).

What was measured:
[1] = biological target: T1, Sodium-dependent serotonin transporter (Homo sapiens, UniProt P31645); assay: Inhibition of SERT (unknown origin)-mediated uptake
[2] = biological target: T2, Sodium-dependent dopamine transporter (Homo sapiens, UniProt Q01959); assay: Inhibition of DAT (unknown origin)-mediated uptake
T2 sequence (Q01959 whole entry): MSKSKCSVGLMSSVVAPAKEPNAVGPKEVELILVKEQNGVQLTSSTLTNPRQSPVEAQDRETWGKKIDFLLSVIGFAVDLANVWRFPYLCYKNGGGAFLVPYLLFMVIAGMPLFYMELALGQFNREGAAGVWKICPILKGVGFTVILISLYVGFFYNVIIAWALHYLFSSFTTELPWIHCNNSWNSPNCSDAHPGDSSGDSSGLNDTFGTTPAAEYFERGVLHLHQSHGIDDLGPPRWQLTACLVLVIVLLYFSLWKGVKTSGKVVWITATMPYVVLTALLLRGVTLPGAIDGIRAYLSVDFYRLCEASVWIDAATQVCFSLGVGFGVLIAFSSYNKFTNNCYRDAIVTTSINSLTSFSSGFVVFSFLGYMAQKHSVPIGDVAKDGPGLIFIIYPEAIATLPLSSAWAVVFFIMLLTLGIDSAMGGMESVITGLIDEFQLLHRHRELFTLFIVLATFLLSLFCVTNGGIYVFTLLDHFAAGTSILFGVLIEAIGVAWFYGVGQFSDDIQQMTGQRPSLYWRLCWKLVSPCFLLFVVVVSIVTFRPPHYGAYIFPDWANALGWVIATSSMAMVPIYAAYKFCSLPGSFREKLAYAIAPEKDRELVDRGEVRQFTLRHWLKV

[3] = biological target: T1, Sodium-dependent serotonin transporter; assay: Binding affinity to human SERT
[4] = biological target: T3, Sodium-dependent noradrenaline transporter (Homo sapiens, UniProt P23975); assay: Binding affinity to human NET
T3 sequence (P23975 whole entry): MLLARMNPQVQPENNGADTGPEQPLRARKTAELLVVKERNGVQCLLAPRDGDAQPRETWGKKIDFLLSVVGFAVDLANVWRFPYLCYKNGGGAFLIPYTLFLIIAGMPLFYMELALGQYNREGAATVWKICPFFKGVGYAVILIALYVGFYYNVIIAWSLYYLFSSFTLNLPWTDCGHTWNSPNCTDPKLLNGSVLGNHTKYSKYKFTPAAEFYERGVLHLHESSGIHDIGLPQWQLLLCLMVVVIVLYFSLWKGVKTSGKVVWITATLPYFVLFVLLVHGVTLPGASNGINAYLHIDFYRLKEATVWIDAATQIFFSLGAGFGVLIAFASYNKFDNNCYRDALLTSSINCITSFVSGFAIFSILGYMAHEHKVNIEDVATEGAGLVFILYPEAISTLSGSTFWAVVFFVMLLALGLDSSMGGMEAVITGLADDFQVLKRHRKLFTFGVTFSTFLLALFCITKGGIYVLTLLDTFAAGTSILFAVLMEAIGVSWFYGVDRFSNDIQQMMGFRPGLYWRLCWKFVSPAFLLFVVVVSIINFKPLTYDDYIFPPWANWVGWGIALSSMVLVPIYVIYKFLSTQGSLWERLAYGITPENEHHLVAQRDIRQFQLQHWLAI

[5] = biological target: T2, Sodium-dependent dopamine transporter; assay: Binding affinity to human DAT
[6] = biological target: T3, Sodium-dependent noradrenaline transporter
Description: Binding affinity to NET (unknown origin)

[7] = Elimination half life in human at 8 to 36 mg by LC-MS/MS analysis; assay type: ADME, organism-based; conditions: in vivo, read-out: beta t1/2
[8] = Tmax in human at 8 to 36 mg by LC-MS/MS analysis; assay type: ADME, organism-based; conditions: in vivo
[9] = biological target: T2, Sodium-dependent dopamine transporter
Description: Binding affinity to DAT (unknown origin)

[10] = tested on: Homo sapiens; assay: In vivo receptor occupancy at SERT in human at 8 to 16 mg after 24 hrs post dose by [11C]-DASB based PET imaging analysis; assay type: functional
[11] = Half life in human at 4 to 8 mg; assay type: ADME, organism-based; conditions: in vivo
[12] = tested on: Homo sapiens; assay: In vivo receptor occupancy at DAT in human at 8 to 16 mg measured 24 hrs post dose by [11C]-PE2I based PET imaging analysis; assay type: functional
[13] = biological target: T1, Sodium-dependent serotonin transporter; assay: biochemical; assay type: cell-based, HEK293
Description: Binding affinity to human SERT expressed in HEK293 cells after 60 mins in presence of [3H]imipramine by liquid scintillation counting

[14] = biological target: T3, Sodium-dependent noradrenaline transporter; assay: Binding affinity to human NET expressed in HEK293 cells after 60 mins in presence of [3H]imipramine by liquid scintillation counting; assay type: cell-based
[15] = biological target: T2, Sodium-dependent dopamine transporter; assay: Binding affinity to human DAT expressed in HEK293 cells after 60 mins in presence of […] by liquid scintillation counting; assay type: cell-based
[16] = biological target: T1, Sodium-dependent serotonin transporter
Description: Binding affinity to SERT (unknown origin)

[17] = biological target: Sodium-dependent dopamine transporter (Rattus norvegicus, UniProt P23977); assay: Inhibition of rat brain DAT assessed as reduction of [3H]-DA re-uptake preincubated for 30 mins followed by [3H]-DA addition measured after 5 mins by scintillation counting
Chain of Sodium-dependent dopamine transporter (Rattus norvegicus, UniProt P23977) (P23977 whole entry): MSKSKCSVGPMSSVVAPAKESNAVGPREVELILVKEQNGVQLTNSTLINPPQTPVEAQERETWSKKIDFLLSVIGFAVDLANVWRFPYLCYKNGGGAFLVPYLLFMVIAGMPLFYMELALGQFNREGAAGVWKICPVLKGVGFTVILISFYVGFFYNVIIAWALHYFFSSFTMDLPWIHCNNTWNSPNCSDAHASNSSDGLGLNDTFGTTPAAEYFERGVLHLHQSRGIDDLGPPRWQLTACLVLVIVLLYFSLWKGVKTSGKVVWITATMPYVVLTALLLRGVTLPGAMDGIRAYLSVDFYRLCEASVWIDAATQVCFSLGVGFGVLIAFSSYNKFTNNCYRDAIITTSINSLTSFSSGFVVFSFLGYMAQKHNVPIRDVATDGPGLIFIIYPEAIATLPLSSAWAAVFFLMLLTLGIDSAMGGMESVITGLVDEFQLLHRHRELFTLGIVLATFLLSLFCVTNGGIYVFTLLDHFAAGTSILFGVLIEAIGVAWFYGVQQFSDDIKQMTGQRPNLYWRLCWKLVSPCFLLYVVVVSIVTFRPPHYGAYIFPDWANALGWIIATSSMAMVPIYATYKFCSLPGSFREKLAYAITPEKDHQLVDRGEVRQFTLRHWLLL

[18] = biological target: Sodium-dependent serotonin transporter (Rattus norvegicus, UniProt P31652); assay: Inhibition of rat brain SERT assessed as reduction of [3H]5-HT re-uptake preincubated for 30 mins followed by [3H]5-HT addition measured after 5 mins by scintillation counting
Chain of Sodium-dependent serotonin transporter (Rattus norvegicus, UniProt P31652) (P31652 whole entry): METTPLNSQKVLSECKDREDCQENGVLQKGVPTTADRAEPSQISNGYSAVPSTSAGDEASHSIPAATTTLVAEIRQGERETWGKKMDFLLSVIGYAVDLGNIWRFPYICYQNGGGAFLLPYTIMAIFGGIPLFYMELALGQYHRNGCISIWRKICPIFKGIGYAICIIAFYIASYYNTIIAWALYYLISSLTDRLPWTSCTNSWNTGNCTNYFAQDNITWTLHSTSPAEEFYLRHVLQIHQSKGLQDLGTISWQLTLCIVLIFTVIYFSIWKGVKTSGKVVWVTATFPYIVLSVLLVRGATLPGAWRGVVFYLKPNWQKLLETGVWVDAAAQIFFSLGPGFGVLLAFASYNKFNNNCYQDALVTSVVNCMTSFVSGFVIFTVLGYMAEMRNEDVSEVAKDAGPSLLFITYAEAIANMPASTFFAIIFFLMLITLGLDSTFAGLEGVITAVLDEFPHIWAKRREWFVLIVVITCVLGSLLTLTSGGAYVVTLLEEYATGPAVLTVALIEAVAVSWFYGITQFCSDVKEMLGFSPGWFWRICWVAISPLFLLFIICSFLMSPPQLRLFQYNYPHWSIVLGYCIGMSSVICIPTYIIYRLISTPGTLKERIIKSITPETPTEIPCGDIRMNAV

[19] = biological target: Norepinephrine transporter (Rattus norvegicus, UniProt Q9WTR4); assay: Inhibition of rat brain NET assessed as reduction of [3H]-NE re-uptake preincubated for 30 mins followed by [3H]-NE addition measured after 5 mins by scintillation counting
Chain of Norepinephrine transporter (Q9WTR4 whole entry): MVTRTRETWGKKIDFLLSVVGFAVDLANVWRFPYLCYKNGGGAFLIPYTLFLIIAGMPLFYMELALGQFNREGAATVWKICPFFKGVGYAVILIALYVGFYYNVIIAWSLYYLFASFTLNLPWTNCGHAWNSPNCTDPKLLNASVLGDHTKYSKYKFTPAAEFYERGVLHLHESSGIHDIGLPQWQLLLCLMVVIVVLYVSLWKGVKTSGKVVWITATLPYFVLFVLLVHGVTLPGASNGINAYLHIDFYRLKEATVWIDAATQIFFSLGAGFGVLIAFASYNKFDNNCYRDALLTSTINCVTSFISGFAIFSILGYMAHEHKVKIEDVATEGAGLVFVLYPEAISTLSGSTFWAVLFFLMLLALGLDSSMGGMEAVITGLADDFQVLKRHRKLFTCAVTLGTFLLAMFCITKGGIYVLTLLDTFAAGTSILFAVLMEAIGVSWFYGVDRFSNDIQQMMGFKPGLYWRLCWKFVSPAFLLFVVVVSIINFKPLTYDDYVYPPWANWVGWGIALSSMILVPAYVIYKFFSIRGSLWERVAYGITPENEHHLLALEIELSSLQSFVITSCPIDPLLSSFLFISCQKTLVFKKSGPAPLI

[20] = Half life in human brain; assay type: ADME, tissue-based
[21] = tested on: Homo sapiens; assay: In vivo receptor occupancy at DAT in iv dosed human measured up to 15 mins by PET analysis; assay type: functional
[22] = tested on: Mus musculus; assay: In vivo receptor occupancy at SERT in mouse at 0.3 mg/kg; assay type: functional
[23] = tested on: Homo sapiens; assay: In vivo receptor occupancy at SERT in human at 0.5 mg, po administered on day 1 measured on day 14 by [11C]-DASB -based PET imaging analysis; assay type: functional
[24] = tested on: Homo sapiens; assay: In vivo receptor occupancy at DAT in human at 3 mg, po administered on day 1 measured on day 14 by […]-based PET imaging analysis; assay type: functional
[25] = tested on: Homo sapiens; assay: In vivo receptor occupancy at SERT in human at 3 mg, po administered on day 1 measured on day 14 by [11C]-DASB -based PET imaging analysis; assay type: functional
[26] = Half life in human at 0.025 to 5 mg, po by LC-MS/MS analysis; assay type: ADME, organism-based; conditions: in vivo
[27] = tested on: Mus musculus; assay: Antidepressant activity in TST mouse model assessed as reduction in immobility time at 0.3 mg/kg, po relative to control; assay type: functional
[28] = tested on: Mus musculus; assay: In vivo receptor occupancy at DAT in mouse at 0.3 mg/kg; assay type: functional
[29] = Tmax in human at 0.025 to 5 mg, po by LC-MS/MS analysis; assay type: ADME, organism-based; conditions: in vivo
[30] = tested on: Mus musculus; assay: In vivo receptor occupancy at NET in mouse at 0.3 mg/kg; assay type: functional

T1 sequence (P31645 whole entry): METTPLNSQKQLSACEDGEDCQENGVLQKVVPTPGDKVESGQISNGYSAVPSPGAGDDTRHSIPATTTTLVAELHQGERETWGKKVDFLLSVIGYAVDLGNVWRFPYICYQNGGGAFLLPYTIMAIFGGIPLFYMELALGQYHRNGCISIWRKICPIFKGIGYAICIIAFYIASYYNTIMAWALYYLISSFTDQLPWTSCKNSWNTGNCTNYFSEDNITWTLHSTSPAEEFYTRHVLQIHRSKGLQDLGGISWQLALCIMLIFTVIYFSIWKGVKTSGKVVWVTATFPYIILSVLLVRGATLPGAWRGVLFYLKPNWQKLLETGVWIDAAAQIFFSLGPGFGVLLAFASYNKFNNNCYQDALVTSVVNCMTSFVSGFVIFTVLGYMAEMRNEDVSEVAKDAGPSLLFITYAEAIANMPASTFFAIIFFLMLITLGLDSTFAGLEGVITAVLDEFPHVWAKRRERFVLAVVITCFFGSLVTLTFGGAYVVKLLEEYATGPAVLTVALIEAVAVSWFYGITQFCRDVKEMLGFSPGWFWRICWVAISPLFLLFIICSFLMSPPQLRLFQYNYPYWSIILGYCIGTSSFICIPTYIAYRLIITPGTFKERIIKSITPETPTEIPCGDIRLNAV

Q: Which results are given for `CN(C)C[C@]1(c2ccc3ccccc3c2)CC[C@](C)(O)CC1`?
A: IC50 [1]: 7 nM; IC50 [2]: 167 nM

Q: Which Ki [3] does the source give for `Clc1ccc([C@@H]2CCNC[C@@]23CCOC3)cc1Cl` here?
A: 5.01 nM

Q: What about the Ki [4] of the same molecule?
A: 79.4 nM

Q: And the Ki [5]?
A: 39.8 nM

Q: For `N[C@H]1CC[C@H](c2ccc(Cl)c(Cl)c2)c2ccccc21`, which IC50 [6] is on record?
A: 4 nM

Q: What about the half-life [7] of the same molecule?
A: 44 to 77 h

Q: What about the Tmax [8] of the same molecule?
A: 10 to 12 h

Q: What about the IC50 [9] of the same molecule?
A: 2 nM

Q: What about the Occ [10] of the same molecule?
A: 2 - 14%

Q: And the half-life [11]?
A: 47 h

Q: And the Occ [12]?
A: 33 - 49%

Q: For `CNC[C@@H](c1ccc2ccccc2c1)[C@@H](O)c1ccccc1`, which Kd [13] is on record?
A: 210 nM

Q: What about the Kd [14] of the same molecule?
A: 42 nM

Q: What about the Kd [15] of the same molecule?
A: 200 nM

Q: What does the source list for `COC[C@H]1CN[C@H]2CC[C@]1(c1ccc(Cl)c(Cl)c1)C2`?
A: Ki [3]: 1.26 nM; Ki [4]: 0.0794 nM; Ki [5]: 1.51 nM

Q: What does the source list for `Cc1cc2cc(OC3C[C@H]4CC[C@@H](C3)N4)ccc2oc1=O` (some centres not stated)?
A: IC50 [6]: 10 nM; IC50 [9]: 150 nM; IC50 [16]: 0.72 nM

Q: Which results are given for `C[C@]1(O)CC[C@@](CN)(c2ccc(Cl)c(Cl)c2)CC1`?
A: IC50 [1]: > 10000 nM; IC50 [2]: 2600 nM

Q: For `CC1CCCN(C(=O)CSC[C@H]2CN(C)CC[C@@H]2c2ccc(Cl)cc2)C1` (some centres not stated), which IC50 [17] is on record?
A: 120 nM

Q: And the IC50 [18]?
A: 15 nM

Q: What about the IC50 [19] of the same molecule?
A: 84 nM

Q: With `Clc1ccc(C2CCNCC23CCOCC3)cc1Cl` (racemic) as the molecule, how does the Ki [3] read?
A: 0.631 nM

Q: What about the Ki [4] of the same molecule?
A: 10 nM

Q: What about the Ki [5] of the same molecule?
A: 20 nM

Q: Which Ki [13] does the source give for `CN(C)C[C@H](c1ccc2ccccc2c1)[C@H](O)C1CCCCC1` (racemic) here?
A: 6 nM

Q: What about the Ki [14] of the same molecule?
A: 10 nM

Q: And the Ki [15]?
A: 53 nM

Q: Which Ki [13] does the source give for `CNC[C@H](c1ccc2ccccc2c1)[C@H](O)c1ccccc1` (racemic) here?
A: 12 nM

Q: And the Ki [14]?
A: 1.2 nM

Q: What about the Ki [15] of the same molecule?
A: 43 nM

Q: Which half-life [20] does the source give for `COC(=O)[C@H](c1ccccc1)[C@H]1CCCCN1` (racemic) [DEXMETHYLPHENIDATE] here?
A: 1.5 h

Q: And the Occ [21]?
A: 60%

Q: Which Ki [3] does the source give for `Clc1ccc(C2CCNCC23CCOCC3)cc1Cl` (stereo in doubt; 171) here?
A: 1.26 nM

Q: And the Ki [4]?
A: 63.1 nM

Q: And the Ki [5]?
A: 31.6 nM

Q: For `Clc1ccc(C2CCNCC23CCOCC3)cc1Cl` (stereo in doubt; 172), which Ki [3] is on record?
A: 0.316 nM

Q: And the Ki [4]?
A: 3.98 nM

Q: What about the Ki [5] of the same molecule?
A: 12.6 nM

Q: With `Cc1ccc(C23CNCC2C3)cc1` (configuration not stated) [BICIFADINE] as the molecule, how does the IC50 [6] read?
A: 55 nM

Q: What about the IC50 [9] of the same molecule?
A: 910 nM

Q: And the IC50 [16]?
A: 117 nM

Q: For `CC(NC(C)(C)C)C(=O)c1cccc(Cl)c1` (configuration not stated) [BUPROPION], which Occ [21] is on record?
A: <30%

Q: With `COC(=O)[C@H]1[C@@H](OC(=O)c2ccccc2)C[C@@H]2CC[C@H]1N2C` [COCAINE] as the molecule, how does the half-life [20] read?
A: 0.333 h

Q: With `COC[C@@]12CNCC[C@]1(c1ccc(Cl)c(Cl)c1)C2` [GSK1360707] as the molecule, how does the IC50 [6] read?
A: 8.1 nM

Q: What about the IC50 [9] of the same molecule?
A: 8 nM

Q: And the IC50 [16]?
A: 9.2 nM

Q: What does the source list for `CN1Cc2cc(-c3ccc(N)nn3)ccc2[C@H](c2ccc3ccccc3c2)C1` [LIAFENSINE]?
A: IC50 [6]: 8.8 nM; Occ [22]: 86%; Occ [23]: 19%; Occ [24]: 19%; Occ [25]: 82%; half-life [26]: 34 to 57 h; inhibition in vivo at 0.3 mg/kg [27]: 77%; Occ [28]: 28%; Tmax [29]: 5 to 7.2 h; Occ [30]: 76%; IC50 [16]: 1.1 nM
